{"source": "paper PMC12348107", "about": "“Saponins from Oxybasis rubra (L.) S.Fuentes, Uotila & Borsh: Comparative Assessment of Cytotoxic Potential Against a Wide Panel of Cancer Cell Lines” (Molecules, 2025)", "key": {"[1]": {"tested_on": "FTC133 follicular thyroid carcinoma cells", "test": "LDH cytotoxicity assay, FTC133", "type": "cell-based", "conditions": "Homo sapiens, FTC-133, LDH test, read-out: Cytotoxic activity expressed as IC50", "method": "(§1) The cytotoxic activity was tested on human cancer and normal cell lines, grouped in several panels: skin (malignant melanoma HTB-140, malignant melanoma A375, melanoma WM793, and normal keratinocytes HaCaT), prostate (prostate carcinoma DU-145, prostate carcinoma PC3, and prostate epithelial cells PNT2), thyroid (thyroid carcinoma FTC133, thyroid carcinoma, undifferentiated 8505C), gastrointestinal panel (hepatocellular carcinoma HepG2, colon adenocarcinoma Caco-2, and colon adenocarcinoma HT29), and single line of lung carcinoma A549. Cells were grown at standard conditions (37 °C, 5% CO2, relative humidity) and culture media (DMEM/F12 for PNT2, WM793, HT29, A549; DMEM Low Glucose for DU-145; DMEM High Glucose for A375, HaCaT, A549; MEM with NEAA for Caco-2), supplemented with 10% fetal bovine serum (FBS) and 1% antibiotic solution (10,000 U penicillin and 10 mg streptomycin/mL). All cell lines, cell culture media, and supplements were from Merck (Seelze, Germany).\n(§2) Before the experiment, cells were seeded onto 96-well plates for 24 h, at a density of 1.5 × 10^4 cells/ well. Then the tested compounds (5–100 μg/mL) were added and incubated for 24 and 48 h. Cell viability was measured with the lactate dehydrogenase (LDH) assay by Clontech (Clontech, Mountain View, CA, USA), as described previously. The absorbance was measured at 490 nm using a Biotek Synergy microplate reader (BioTek Instruments Inc., Winooski, VT, USA). Cell viability was expressed as a percentage of dead cells. Each experiment was conducted in triplicate. Doxorubicin was used as a reference cytostatic.\n(§3) The results were expressed as mean (±SD). Data were analyzed using Statistica v.13.3 (StatSoft, Tulsa, OK, USA). The IC50 values were calculated using OriginPro 2020b (64-bit) 9.7.5.184 (Academic) (OriginLab Corporation, Northampton, MA, USA). One-way analysis of variance (ANOVA) and the post-hoc Tukey multiple comparison test were used. The statistical significance was defined at the probability level of p < 0.05. Principal component analysis (PCA) and hierarchical cluster analysis (HCA) were performed using Statistica v.13.3 (StatSoft, Tulsa, OK, USA). Prior to PCA, the Bartlett’s sphericity test was conducted, and the Kaiser-Meyer-Olkin Measure of Sampling Adequacy index (KMO) was examined. In the simple model, for each compound tested (1–4), the cell lines were the cases, and the different concentrations of the compound were the parameters. This was followed by a PCA model in which the cell lines were the parameters, and the compounds (at different concentrations) were the cases. All PCA models were based on a correlation matrix. Hierarchical cluster analysis (CA) based on standardized data was performed using Ward’s method and Euclidean distance. The results were grouped based on Mojena’s rule."}, "[2]": {"tested_on": "A549 lung carcinoma cells", "test": "LDH cytotoxicity assay, A549", "type": "cell-based, human", "conditions": "LDH test; for IC50: Homo sapiens, read-out: Cytotoxic activity expressed as IC50", "method": "as §1, §2, §3"}, "[3]": {"tested_on": "8505C undifferentiated thyroid carcinoma cells", "test": "LDH cytotoxicity assay, 8505C", "type": "cell-based", "conditions": "Homo sapiens, LDH test, read-out: Cytotoxic activity expressed as IC50", "method": "as §1, §2, §3"}, "[4]": {"tested_on": "HepG2 hepatocellular carcinoma cells", "test": "LDH cytotoxicity assay, HepG2", "type": "cell-based", "conditions": "Homo sapiens, LDH test, read-out: Cytotoxic activity expressed as IC50", "method": "as §1, §2, §3"}, "[5]": {"tested_on": "A375 malignant melanoma cells", "test": "LDH cytotoxicity assay, A375", "type": "cell-based", "conditions": "Homo sapiens, A-375, LDH test, read-out: Cytotoxic activity expressed as IC50", "method": "as §1, §2, §3"}, "[6]": {"tested_on": "HT29 colon adenocarcinoma cells", "test": "LDH cytotoxicity assay, HT29", "type": "cell-based", "conditions": "Homo sapiens, HT-29, LDH test, read-out: Cytotoxic activity expressed as IC50", "method": "as §1, §2, §3"}, "[7]": {"tested_on": "DU-145 metastatic prostate carcinoma cells", "test": "LDH cytotoxicity assay, DU-145", "type": "cell-based, human", "conditions": "for IC50: Homo sapiens, LDH test, read-out: Cytotoxic activity expressed as IC50", "method": "as §1, §2, §3"}, "[8]": {"tested_on": "PC3 metastatic prostate carcinoma cells", "test": "LDH cytotoxicity assay, PC3", "type": "cell-based", "conditions": "Homo sapiens, LDH test, read-out: Cytotoxic activity expressed as IC50", "method": "as §1, §2, §3"}, "[9]": {"tested_on": "Caco-2 colon adenocarcinoma cells", "test": "LDH cytotoxicity assay, Caco-2", "type": "cell-based", "conditions": "Homo sapiens, LDH test, read-out: Cytotoxic activity expressed as IC50", "method": "as §1, §2, §3"}, "[10]": {"tested_on": "HaCaT normal keratinocytes", "test": "LDH cytotoxicity assay, HaCaT", "type": "cell-based, human", "conditions": "HaCaT normal cells, 48 h incubation, LDH test", "method": "as §1, §2, §3"}, "[11]": {"test": "LDH cytotoxicity assay, HaCaT", "type": "cell-based, human", "conditions": "human, HaCaT normal keratinocytes, HaCaT normal cells, LDH test, read-out: Cytotoxic activity expressed as IC50", "method": "as §1, §2, §3"}, "[12]": {"tested_on": "WM793 primary melanoma cells", "test": "LDH cytotoxicity assay, WM793", "type": "cell-based", "conditions": "Homo sapiens, LDH test, read-out: Cytotoxic activity expressed as IC50", "method": "as §1, §2, §3"}, "[13]": {"tested_on": "PNT2 prostate epithelial cells", "test": "LDH cytotoxicity assay, PNT2", "type": "cell-based, human", "conditions": "normal prostate epithelial cells", "method": "as §1, §2, §3"}, "[14]": {"test": "LDH cytotoxicity assay, PNT2", "type": "cell-based, human", "conditions": "human, PNT2 prostate epithelial cells (normal), PNT2 normal cells, LDH test, read-out: Cytotoxic activity expressed as IC50", "method": "as §1, §2, §3"}, "[15]": {"tested_on": "HTB-140 malignant melanoma cells", "test": "LDH cytotoxicity assay, HTB-140", "type": "cell-based", "conditions": "Homo sapiens, LDH test, read-out: Cytotoxic activity expressed as IC50", "method": "as §1, §2, §3"}}, "note": "Where “and” joins values, the source holds several entries; their conditions need not be identical. Equal values may be shown once. Read-outs that look alike come from different tables or passages of the source. Marks after values point to notes of the source that are not given here.", "data": [{"smiles": "CC1(C)CC[C@]2(C(=O)O[C@@H]3O[C@H](CO)[C@@H](O)[C@H](O)[C@H]3O)CC[C@]3(C)C(=CC[C@@H]4[C@@]5(C)CC[C@H](O[C@@H]6O[C@H](CO)[C@@H](O)[C@H](O[C@@H]7O[C@H](CO)[C@@H](O)[C@H](O)[C@H]7O)[C@H]6O)[C@@](C)(CO)[C@@H]5CC[C@]43C)[C@@H]2C1", "note": "[Compound 2]", "values": [{"measurement": "IC50", "setting": "[1]; FTC133, 24 h incubation", "result": "42.9 µM and 41.1 µg/mL"}, {"measurement": "IC50", "setting": "[1]; FTC133, 48 h incubation", "result": "23.5 µM and 22.5 µg/mL"}, {"measurement": "Cytotoxic activity expressed as IC50", "setting": "[2]; A549, 48 h incubation", "result": "8.23 ± 0.29 ^a µg/mL"}, {"measurement": "IC50", "setting": "[2]; A549, 24 h, A549, 24 h incubation", "result": "13.8 µM and 13.2 µg/mL"}, {"measurement": "IC50", "setting": "[2]; A549, 48 h, A549, 48 h incubation", "result": "8.58 µM and 8.24 µg/mL"}, {"measurement": "IC50", "setting": "[3]; 24 h incubation", "result": "> 100", "unit": "µg/mL"}, {"measurement": "IC50", "setting": "[3]; 48 h incubation", "result": "> 100", "unit": "µg/mL"}, {"measurement": "IC50", "setting": "[4]; HepG2, 24 h incubation", "result": "98 µM and 94 µg/mL"}, {"measurement": "IC50", "setting": "[4]; HepG2, 48 h incubation", "result": "63 µM and 60.5 µg/mL"}, {"measurement": "IC50", "setting": "[5]; A375, 24 h incubation", "result": "33.9 µM and 32.5 µg/mL"}, {"measurement": "IC50", "setting": "[5]; A375, 48 h incubation", "result": "31.4 µM and 30.1 µg/mL"}, {"measurement": "IC50", "setting": "[6]; HT29, 24 h incubation", "result": "> 100", "unit": "µg/mL"}, {"measurement": "IC50", "setting": "[6]; HT29, 48 h incubation", "result": "66.5 µM and 63.8 µg/mL"}, {"measurement": "Toxicity against DU-145, in words", "setting": "[7]; DU-145", "result": "moderate toxicity"}, {"measurement": "IC50", "setting": "[7]; DU-145, 24 h incubation", "result": "33.3 µM and 32 µg/mL"}, {"measurement": "IC50", "setting": "[7]; DU-145, 48 h incubation", "result": "22 µM and 21.1 µg/mL"}, {"measurement": "IC50", "setting": "[8]; PC3, 24 h incubation", "result": "> 100", "unit": "µg/mL"}, {"measurement": "IC50", "setting": "[8]; PC3, 48 h incubation", "result": "69.8 µM and 67 µg/mL"}, {"measurement": "IC50", "setting": "[9]; Caco-2, 24 h incubation", "result": "> 100", "unit": "µg/mL"}, {"measurement": "IC50", "setting": "[9]; Caco-2, 48 h incubation", "result": "38.4 µM and 36.8 µg/mL"}, {"measurement": "Cytotoxic activity expressed as IC50", "setting": "[10]", "result": "39.93 ± 0.52 ^b µg/mL"}, {"measurement": "IC50 at 24 h", "setting": "[11]; 24 h incubation", "result": "46.8 µM and 44.9 µg/mL"}, {"measurement": "IC50 at 48 h", "setting": "[11]; 48 h incubation", "result": "41.6 µM and 39.9 µg/mL"}, {"measurement": "IC50", "setting": "[12]; WM793, 24 h incubation", "result": "14.4 µM and 13.8 µg/mL"}, {"measurement": "IC50", "setting": "[12]; WM793, 48 h incubation", "result": "6.79 µM and 6.52 µg/mL"}, {"measurement": "IC50", "setting": "[13]; Homo sapiens, PNT2, incubation time not given, read-out: IC50 against normal prostate epithelial cells", "result": "> 100", "unit": "µg/mL"}, {"measurement": "Toxicity to normal prostate epithelial cells, in words", "setting": "[13]", "result": "non-toxic"}, {"measurement": "IC50 at 24 h", "setting": "[14]; 24 h incubation", "result": "> 100", "unit": "µg/mL"}, {"measurement": "IC50 at 48 h", "setting": "[14]; 48 h incubation", "result": "> 100", "unit": "µg/mL"}, {"measurement": "IC50", "setting": "[15]; HTB-140, 24 h incubation", "result": "> 100", "unit": "µg/mL"}, {"measurement": "IC50", "setting": "[15]; HTB-140, 48 h incubation", "result": "> 100", "unit": "µg/mL"}]}]}
